≈ marks a conversion by molar mass, not a printed value. Counter-ions that a name gives are not always drawn. Like-named read-outs stand apart in the source and are kept apart here.
Tested on: P. acnes (ATCC 6919)
Assay: Minimal inhibitory concentration (MIC) against P. acnes
Format: cell-based, Propionibacterium acnes
Details: P. acnes ATCC 6919, 10^6 CFU/mL
Description: To determine minimal inhibitory concentration (MIC), reagents were dissolved in vehicle (5% v/v) and then added to bacteria suspension. P. acnes (ATCC® 6919TM) at 10^6 CFU/mL was incubated with test materials at the concentrations of two-fold serial dilution (0.25-500 μg/mL) and incubated for 72 hours (P. acnes).

[1] = Cutibacterium acnes, ATCC6919, 72 h, read-out: MIC

Compound	MIC [1] [µg/mL]	MIC (72 hours) [µg/mL]
C/C(=C\CSCC(Nc1nccc(C(=O)O)n1)C(=O)O)CCCC(C)CCCC(C)CCCC(C)C (stereo not drawn) [BG]	42 (≈ 80.5 µM)	–
C/C(=C\CSC[C@H](NC(=O)N(CC#N)CC(N)=O)C(=O)O)CCCC(C)CCCC(C)CCCC(C)C (stereo partly drawn) [BJ]	23 (≈ 42.7 µM)	–
CC(=O)NC(CC(N)=O)C(=O)NC(CSC/C=C(\C)CCCC(C)CCCC(C)CCCC(C)C)C(=O)O (stereo not drawn) [P]	10 (≈ 18 µM)	–
CC(C)=CCC/C(C)=C/CC/C(C)=C/CSCC(NC(=O)COCC(=O)O)C(=O)O (stereo not drawn) [AQ]	> 125	–
C[C@H]1c2cccc(O)c2C(=O)C2=C(O)[C@]3(O)C(=O)C(C(N)=O)=C(O)[C@@H](N(C)C)[C@@H]3[C@@H](O)[C@@H]21 [Doxycycline, reference compound]	< 0.2	–
C/C(=C\CSC[C@H](Nc1cnc(C(=O)O)cn1)C(=O)O)CCCC(C)CCCC(C)CCCC(C)C (stereo partly drawn) [BK]	31 (≈ 59.4 µM)	–
O=C(O)CN(CC(=O)O)C(=O)NC12CC3CC(CC(C3)C1)C2 [AY]	> 125	–
C/C(=C\CSC(C)(C)C(Nc1ncc(C(=O)O)cn1)C(=O)O)CCCC(C)CCCC(C)CCCC(C)C (stereo not drawn) [BP]	> 125	–
C/C(=C\CSc1ccc(C(=O)O)cn1)CCCC(C)CCCC(C)CCCC(C)C (stereo not drawn) [BA]	> 125	–
C/C(=C\CSCC(NC(=O)N1CC(O)CC1C(=O)O)C(=O)O)CCCC(C)CCCC(C)CCCC(C)C (stereo not drawn) [BC]	12 (≈ 21.6 µM)	–
C/C(=C\CSCC(NC(=O)N1CCCCC1)C(=O)O)CCCC(C)CCCC(C)CCCC(C)C (stereo not drawn) [BD]	> 125	–
CSCCC(NC(C)=O)C(=O)NC(CSC/C=C(\C)CCCC(C)CCCC(C)CCCC(C)C)C(=O)O (stereo not drawn) [L]	–	>16
C/C(=C\CSC[C@H](NC(=O)Nc1ncc(C(=O)O)c(C(F)(F)F)n1)C(=O)O)CCCC(C)CCCC(C)CCCC(C)C (stereo partly drawn) [BB]	31 (≈ 49 µM)	–
CC(=O)NC(C(=O)NC(CSC/C=C(\C)CCCC(C)CCCC(C)CCCC(C)C)C(=O)O)C(C)O (stereo not drawn) [N]	> 250	–
C/C(=C\CSC(C)(C)C(NC(=O)CCC(=O)O)C(=O)O)CCCC(C)CCCC(C)CCCC(C)C (stereo not drawn) [BO]	125 (≈ 237 µM)	–
CSCC(NC(=O)N(CC(=O)O)CC(=O)O)C(=O)O (stereo not drawn) [AX]	> 125	–
C/C(=C\CSCC(Nc1ncccn1)C(=O)O)CCCC(C)CCCC(C)CCCC(C)C (stereo not drawn) [BF]	> 125	–
C/C(=C\CSC[C@H](NC(=O)N1CCC1C(=O)O)C(=O)O)CCCC(C)CCCC(C)CCCC(C)C (stereo partly drawn) [AZ]	63 (≈ 120 µM)	–
C/C(=C\CSCC(NC(=O)N1CCCCC1C(=O)O)C(=O)O)CCCC(C)CCCC(C)CCCC(C)C (stereo not drawn) [AW]	> 125	–
C/C(=C\CSCC(NC(=O)N1CCCC(C(=O)O)C1)C(=O)O)CCCC(C)CCCC(C)CCCC(C)C (stereo not drawn) [BE]	23 (≈ 41.5 µM)	–
CC(C)=CCC/C(C)=C/CC/C(C)=C/CSCC(NC(=O)N(CC(=O)O)CC(=O)O)C(=O)O (stereo not drawn) [AF]	> 125	–
CC(=O)NC(CC(C)C)C(=O)NC(CSC/C=C(\C)CCCC(C)CCCC(C)CCCC(C)C)C(=O)O (stereo not drawn) [M]	16 (≈ 28.8 µM)	–
CC(=O)NC(C(=O)NC(CSC/C=C(\C)CCCC(C)CCCC(C)CCCC(C)C)C(=O)O)C(C)CO (stereo not drawn) [K]	> 250	–
CC(=O)NC(Cc1ccccc1)C(=O)NC(CSC/C=C(\C)CCCC(C)CCCC(C)CCCC(C)C)C(=O)O (stereo not drawn) [O]	32 (≈ 54.3 µM)	–
CC(C)=CCC/C(C)=C/CC/C(C)=C/CSCC(NC(=O)N1CCCC1C(=O)O)C(=O)O (stereo not drawn) [AD]	> 125	–
C/C(=C/CSC[C@H](NC(=O)N(C)CC(=O)O)C(=O)O)CCCC(C)CCCC(C)CCCC(C)C (stereo partly drawn) [Compound BI, (2R)-2-{[(carboxymethyl)(methyl)carbamoyl]amino}-3-{[(2Z)-3,7,11,15-tetramethylhexadec-2-en-1-yl]sulfanyl}propanoic acid]	12 (≈ 23.3 µM)	–
CCC[C@@H]1C[C@@H](C(=O)N[C@@H]([C@H]2O[C@H](SC)[C@H](O)[C@@H](O)[C@H]2O)[C@H](C)Cl)N(C)C1 [Clindamycin HCl, reference compound]	0.06	–
